Source: patent US8859535B2, “Hydroxy substituted isoquinolinone derivatives” (Novartis AG, priority 2011, dated 2014)

Legend:
[1] = molecular target: T1, human MDM2 protein (amino acids 2-188) (Homo sapiens, UniProt Q00987); experiment: p53-MDM2 TR-FRET assay (p53-MDM2 Assay 1); format: binding; details: 1.25 nM MDM2-biotinylated, 10 nM Cy5-p53 peptide; read-out: IC50 (μM) of p53-Hdm2 inhibition (TR-FRET) Assay 1
T1 construct: human MDM2 protein (amino acids 2-188); made in house
Description: (§1) Time Resolved Fluorescence Energy Transfer (TR-FRET) Assay
(§2) The inhibition of p53-MDM2 and p53-MDM4 interactions is measured by time resolved fluorescence energy transfer (TR-FRET). Fluorescence energy transfer (or Foerster resonance energy transfer) describes an energy transfer between donor and acceptor fluorescent molecules. For this assay, human MDM2 protein (amino acids 2-188) and human MDM4 protein (amino acids 2-185), tagged with a C-terminal biotin moiety, are used in combination with a Europium labeled streptavidin (Perkin Elmer, Inc., Waltham, Mass., USA) serving as the donor fluorophore. The p53 derived, Cy5 labeled peptide Cy5-TFSDLWKLL (p53 aa18-26) is the energy acceptor. Upon excitation of the donor molecule at 340 nm, binding interaction between MDM2 or MDM4 and the p53 peptide induces energy transfer and enhanced response at the acceptor emission wavelength at 665 nm. Disruption of the formation of the p53-MDM2 or p53-MDM4 complex due to an inhibitor molecule binding to the p53 binding site of MDM2 or MDM4 results in increased donor emission at 620 nm. The ratiometric FRET assay readout is calculated from the raw data of the two distinct fluorescence signals measured in time resolved mode (fluorescence 665 nm/fluorescence 620 nm×1000).
(§3) After addition of 1.25 nM MDM2-biotinylated or 2.5 nM MDM4-biotinylated (internal preparations), and 0.625 nM Europium labeled streptavidin (Perkin Elmer), the solution is pre-incubated for 15 minutes at room temperature, then 10 nM Cy5-p53 peptide (internal preparation) is added before an incubation at room temperature for 15 minutes prior to reading the plate. For measurement of samples, a Victor II microplate reader (Perkin Elmer) is used with the following settings: Excitation 340 nm, Emission Donor 620 nm and Emission Acceptor 665 nm. IC50 values are calculated by curve fitting using XLfit. If not specified, reagents are purchased from Sigma-Aldrich Chemie GmBH, Buchs, Switzerland.
(§4) This assay was used to evaluate compounds displaying inhibition of p53-MDM2 interaction and p53-MDM4 interaction at IC50s of 0.005 to 50 μM (p53-MDM2 Assay 1 and p53-MDM4 Assay 1, respectively). For selected compounds displaying IC50s between […] on MDM2, a slightly modified assay is used with the following adaptations: 0.1 nM MDM2, 0.1 nM Europium labeled streptavidin and Tecan genios Pro is used as a microplate reader for the fluorescence measurements (p53-MDM2 Assay 2).

[2] = molecular target: T2, human MDM4 protein (amino acids 2-185) (Homo sapiens, UniProt O15151); experiment: p53-MDM4 TR-FRET assay (p53-MDM4 Assay 1); format: binding; details: 2.5 nM MDM4-biotinylated, 10 nM Cy5-p53 peptide; read-out: IC50 (μM) of p53-Hdm4 inhibition (TR-FRET) Assay 1
T2 construct: human MDM4 protein (amino acids 2-185); made in house
T2 sequence (O15151 2-185): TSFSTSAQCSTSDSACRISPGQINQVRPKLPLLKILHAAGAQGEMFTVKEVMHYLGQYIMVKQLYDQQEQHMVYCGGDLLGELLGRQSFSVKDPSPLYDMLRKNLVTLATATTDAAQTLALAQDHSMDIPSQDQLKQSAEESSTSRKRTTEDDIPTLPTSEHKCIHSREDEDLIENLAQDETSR
Description: as §1, §2, §3, §4

T1 sequence (Q00987 2-188): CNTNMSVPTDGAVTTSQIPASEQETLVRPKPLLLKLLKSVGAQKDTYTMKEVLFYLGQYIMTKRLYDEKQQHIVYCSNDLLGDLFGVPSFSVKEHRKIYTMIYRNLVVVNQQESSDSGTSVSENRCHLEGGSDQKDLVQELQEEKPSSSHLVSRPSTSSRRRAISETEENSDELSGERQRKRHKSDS

Row | Compound | IC50 [1] [µM] | IC50 [2] [µM]
1 | COc1cc2c(cc1OC(C)C)[C@H](c1ccc(Cl)cc1)N(c1ccc(C(O)C3CCOCC3)cc1)C(=O)C2 (stereo partly drawn) [Example 40, (S)-1-(4-Chloro-phenyl)-2-{4-[hydroxy-(tetrahydro-pyran-4-yl)-methyl]-phenyl}-7-isopropoxy-6-methoxy-1,4-dihydro-2H-isoquinolin-3-one] | 0.0328 | 31.6
2 | COc1cc2c(cc1OC(C)C)[C@H](c1ccc(Cl)cc1)N(c1ccc(C(C)(O)C3CCN(CC(F)(F)F)CC3)cc1)C(=O)C2 (stereo partly drawn) [Example 77, (S)-1-(4-Chloro-phenyl)-2-(4-{1-hydroxy-1-[1-(2,2,2-trifluoro-ethyl)-piperidin-4-yl]-ethyl}-phenyl)-7-isopropoxy-6-methoxy-1,4-dihydro-2H-isoquinolin-3-one] | 0.011 | 13.5
3 | COc1cc2c(cc1OC(C)C)[C@H](c1ccc(Cl)cc1)N(c1ccc(C(C)(O)C3CCN(C(=O)OC(C)(C)C)CC3)cc1)C(=O)C2 (stereo partly drawn) [Example 42, 4-(1-{4-[(S)-1-(4-Chloro-phenyl)-7-isopropoxy-6-methoxy-3-oxo-3,4-dihydro-1H-isoquinolin-2-yl]-phenyl}-1-hydroxy-ethyl)-piperidine-1-carboxylic acid tert-butyl ester] | 0.0091 | 14.9
4 | CC(C)Oc1cc2c(cc1OCC1COC1)CC(=O)N(c1ccc(C(C)(O)C3CCOCC3)cc1)[C@H]2c1ccc(Cl)cc1 (stereo partly drawn) [Example 147, (S)-1-(4-Chloro-phenyl)-2-{4-[1-hydroxy-1-(tetrahydro-pyran-4-yl)-ethyl]-phenyl}-7-isopropoxy-6-(oxetan-3-ylmethoxy)-1,4-dihydro-2H-isoquinolin-3-one] | 0.0086 | 3.05
5 | COc1cc2c(cc1OC(C)C)[C@H](c1ccc(Cl)cc1)N(c1ccc(C(C)(O)C3CCN(C(=O)N(C)C)CC3)cc1)C(=O)C2 (stereo partly drawn) [Example 82, 4-(1-{4-[(S)-1-(4-Chloro-phenyl)-7-isopropoxy-6-methoxy-3-oxo-3,4-dihydro-1H-isoquinolin-2-yl]-phenyl}-1-hydroxy-ethyl)-piperidine-1-carboxylic acid dimethylamide] | 0.0032 | 2.9
6 | COc1cc2c(cc1OC(C)C)[C@H](c1ccc(Cl)cc1)N(c1ccc(C(C)(O)CNC(C)=O)cc1)C(=O)C2 (stereo partly drawn) [Example 29, N-(2-{4-[(S)-1-(4-Chloro-phenyl)-7-isopropoxy-6-methoxy-3-oxo-3,4-dihydro-1H-isoquinolin-2-yl]-phenyl}-2-hydroxy-propyl)-acetamide] | 0.143 | 39.7
7 | COc1cc2c(cc1OC(C)C)[C@H](c1ccc(Cl)cc1)N(c1ccc([C@](C)(O)c3ccc(NC(C)=O)cc3)cc1)C(=O)C2 [Example 27, N-[4-((R)-1-{4-[(S)-1-(4-Chloro-phenyl)-7-isopropoxy-6-methoxy-3-oxo-3,4-dihydro-1H-isoquinolin-2-yl]-phenyl}-1-hydroxy-ethyl)-phenyl]-acetamide] | 0.0458 | 36.3
8 | COc1cc2c(cc1OC(C)C)[C@H](c1ccc(Cl)cc1)N(c1ccc(C(C)(O)C3CN(C(C)=O)C3)cc1)C(=O)C2 (stereo partly drawn) [Example 66, (S)-2-{4-[1-(1-Acetyl-azetidin-3-yl)-1-hydroxy-ethyl]-phenyl}-1-(4-chloro-phenyl)-7-isopropoxy-6-methoxy-1,4-dihydro-2H-isoquinolin-3-one] | 0.0146 | 13.5
9 | COc1cc2c(cc1OC(C)C)[C@H](c1ccc(Cl)cc1)N(c1ccc(C(C)(O)C3CCS(=O)(=O)CC3)cc1)C(=O)C2 (stereo partly drawn) [Example 166, (S)-1-(4-Chloro-phenyl)-2-{4-[1-(1,1-dioxo-hexahydro-1-thiopyran-4-yl)-1-hydroxy-ethyl]-phenyl}-7-isopropoxy-6-methoxy-1,4-dihydro-2H-isoquinolin-3-one] | 0.00735 | 7.78
10 | COc1cc2c(cc1OC(C)C)[C@H](c1ccc(Cl)cc1)N(c1ccc(C(C)(O)C3CCN(C(C)C)CC3)cc1)C(=O)C2 (stereo partly drawn) [Example 78, (S)-1-(4-Chloro-phenyl)-2-{4-[1-hydroxy-1-(1-isopropyl-piperidin-4-yl)-ethyl]-phenyl}-7-isopropoxy-6-methoxy-1,4-dihydro-2H-isoquinolin-3-one] | 0.0043 | 3.18
11 | COc1cc2c(cc1OC(C)C)[C@H](c1ccc(Cl)cc1)N(c1ccc([C@](C)(O)C3CCN(C)CC3)cc1)C(=O)C2 (single isomer, unassigned) [Example 95] | 0.129 | 49.9
12 | COc1cc2c(cc1OC(C)C)[C@H](c1ccc(Cl)cc1)N(c1ccc(C(C)(O)C3CCN(C(=O)OC(C)C)CC3)cc1)C(=O)C2 (stereo partly drawn) [Example 83, 4-(1-{4-[(S)-1-(4-Chloro-phenyl)-7-isopropoxy-6-methoxy-3-oxo-3,4-dihydro-1H-isoquinolin-2-yl]-phenyl}-1-hydroxy-ethyl)-piperidine-1-carboxylic acid isopropyl ester] | 0.0069 | 7.54
13 | COc1cc2c(cc1OC(C)C)[C@H](c1ccc(Cl)cc1)N(c1ccc(C(C)(O)C3CN(C(C)C)C3)cc1)C(=O)C2 (stereo partly drawn) [Example 72, (S)-1-(4-Chloro-phenyl)-2-{4-[1-hydroxy-1-(1-isopropyl-azetidin-3-yl)-ethyl]-phenyl}-7-isopropoxy-6-methoxy-1,4-dihydro-2H-isoquinolin-3-one] | 0.0234 | 18.4
14 | COc1cc2c(cc1OC(C)C)[C@H](c1ccc(Cl)cc1)N(c1ccc([C@@](C)(O)C3CC[S+]([O-])CC3)cc1)C(=O)C2 (stereo partly drawn) [Example 171, (S)-1-(4-Chloro-phenyl)-2-{4-[(S)-1-hydroxy-1-(1-oxo-hexahydro-1-thiopyran-4-yl)-ethyl]-phenyl}-7-isopropoxy-6-methoxy-1,4-dihydro-2H-isoquinolin-3-one] | 0.0031 | 4.4
15 | COc1cc2c(cc1OC(C)C)[C@H](c1ccc(Cl)cc1)N(c1ccc(C(C)(O)C3CCN(C(N)=O)CC3)cc1)C(=O)C2 (stereo partly drawn) [Example 75, 4-(1-{4-[(S)-1-(4-Chloro-phenyl)-7-isopropoxy-6-methoxy-3-oxo-3,4-dihydro-1H-isoquinolin-2-yl]-phenyl}-1-hydroxy-ethyl)-piperidine-1-carboxylic acid amide] | 0.0043 | 4.95
16 | COc1cc2c(cc1OC(C)C)[C@H](c1ccc(Cl)cc1)N(c1ccc([C@@](C)(O)C34CCC(CC3)O4)cc1)C(=O)C2 (single isomer, unassigned) [Example 136] | 0.0025 | 2.96
17 | COc1ccc(C(C)(O)c2ccc(N3C(=O)Cc4cc(OC)c(OC(C)C)cc4[C@@H]3c3ccc(Cl)cc3)cc2)cn1 (stereo partly drawn) [Example 23, (S)-1-(4-Chloro-phenyl)-2-{4-[1-hydroxy-1-(6-methoxy-pyridin-3-yl)-ethyl]-phenyl}-7-isopropoxy-6-methoxy-1,4-dihydro-2H-isoquinolin-3-one] | 0.0159 | 24.7
18 | COc1cc2c(cc1OC(C)C)[C@H](c1ccc(Cl)cc1)N(c1ccc(C(C)(O)c3ccc(NC(C)=O)cc3)c(F)c1)C(=O)C2 (stereo partly drawn) [Example 28, N-[4-(1-{4-[(S)-1-(4-Chloro-phenyl)-7-isopropoxy-6-methoxy-3-oxo-3,4-dihydro-1H-isoquinolin-2-yl]-2-fluoro-phenyl}-1-hydroxy-ethyl)-phenyl]-acetamide] | 0.0066 | 9.7
19 | CC(C)Oc1cc2c(cc1OCc1ccccn1)CC(=O)N(c1ccc(C(C)(O)C3CCOCC3)cc1)[C@H]2c1ccc(Cl)cc1 (stereo partly drawn) [Example 146, (S)-1-(4-Chloro-phenyl)-2-{4-[1-hydroxy-1-(tetrahydro-pyran-4-yl)-ethyl]-phenyl}-7-isopropoxy-6-(pyridin-2-ylmethoxy)-1,4-dihydro-2H-isoquinolin-3-one] | 0.005 | 1.19
20 | COc1cc2c(cc1OC(C)C)[C@H](c1ccc(Cl)cc1)N(c1ccc(C(C)(O)C3CCC(F)(F)CC3)cc1)C(=O)C2 (stereo partly drawn) [Example 45, (S)-1-(4-Chloro-phenyl)-2-{4-[1-(4,4-difluoro-cyclohexyl)-1-hydroxy-ethyl]-phenyl}-7-isopropoxy-6-methoxy-1,4-dihydro-2H-isoquinolin-3-one] | 0.0089 | 17.4
